Measurements: PubChem BioAssay (NCI)
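How tested: cells in 96-well plates exposed to compound for 48 hours at five concentrations. Abbreviation: GI50, concentration required for 50% inhibition of growth. TGI marks complete inhibition of growth.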

How the values were obtained:
Experiment in all cases: growth of human tumour cells (NCI), 48 h
786-0 renal = tested on: 786-0 renal
A498 renal = tested on: A498 renal
A549 NSCLC = tested on: A549 NSCLC
ACHN renal = tested on: ACHN renal
BT-549 breast = tested on: BT-549 breast
CAKI-1 renal = tested on: CAKI-1 renal
CCRF-CEM leukemia = tested on: CCRF-CEM leukemia
COLO 205 colon = tested on: COLO 205 colon
DU-145 prostate = tested on: DU-145 prostate
EKVX NSCLC = tested on: EKVX NSCLC
HCC-2998 colon = tested on: HCC-2998 colon
HCT-116 colon = tested on: HCT-116 colon
HCT-15 colon = tested on: HCT-15 colon
HL-60(TB) leukemia = tested on: HL-60(TB) leukemia
HOP-62 NSCLC = tested on: HOP-62 NSCLC
HOP-92 NSCLC = tested on: HOP-92 NSCLC
HS 578T breast = tested on: HS 578T breast
HT29 colon = tested on: HT29 colon
IGROV1 ovarian = tested on: IGROV1 ovarian
K-562 leukemia = tested on: K-562 leukemia
KM12 colon = tested on: KM12 colon
LOX IMVI melanoma = tested on: LOX IMVI melanoma
M14 melanoma = tested on: M14 melanoma
MALME-3M melanoma = tested on: MALME-3M melanoma
MCF7 breast = tested on: MCF7 breast
MDA-MB-231 breast = tested on: MDA-MB-231 breast
MDA-MB-435 = tested on: MDA-MB-435
MOLT-4 leukemia = tested on: MOLT-4 leukemia
NCI-H226 lung = tested on: NCI-H226 lung
NCI-H23 lung = tested on: NCI-H23 lung
NCI-H460 lung = tested on: NCI-H460 lung
NCI-H522 lung = tested on: NCI-H522 lung
NCI/ADR-RES ovarian = tested on: NCI/ADR-RES ovarian
OVCAR-3 ovarian = tested on: OVCAR-3 ovarian
OVCAR-4 ovarian = tested on: OVCAR-4 ovarian
OVCAR-5 ovarian = tested on: OVCAR-5 ovarian
OVCAR-8 ovarian = tested on: OVCAR-8 ovarian
PC-3 prostate = tested on: PC-3 prostate
RPMI-8226 leukemia = tested on: RPMI-8226 leukemia
RXF 393 renal = tested on: RXF 393 renal
SF-268 CNS = tested on: SF-268 CNS
SF-295 CNS = tested on: SF-295 CNS
SF-539 CNS = tested on: SF-539 CNS
SK-MEL-2 melanoma = tested on: SK-MEL-2 melanoma
SK-MEL-28 melanoma = tested on: SK-MEL-28 melanoma
SK-MEL-5 melanoma = tested on: SK-MEL-5 melanoma
SK-OV-3 ovarian = tested on: SK-OV-3 ovarian
SN12C renal = tested on: SN12C renal
SNB-19 CNS = tested on: SNB-19 CNS
SNB-75 CNS = tested on: SNB-75 CNS
SR leukemia = tested on: SR leukemia
SW-620 colon = tested on: SW-620 colon
T-47D breast = tested on: T-47D breast
TK-10 renal = tested on: TK-10 renal
U251 CNS = tested on: U251 CNS
UACC-257 melanoma = tested on: UACC-257 melanoma
UACC-62 melanoma = tested on: UACC-62 melanoma
UO-31 renal = tested on: UO-31 renal

CCN(CC)CC(O)CNc1c2ccc(Cl)cc2nc2ccc(OC)cc12 (stereo unspecified)
GI50 (786-0 renal): 549 nM | TGI (786-0 renal): 2050 nM | GI50 (A498 renal): 1430 nM | TGI (A498 renal): 2890 nM | GI50 (A549 NSCLC): 472 nM | TGI (A549 NSCLC): 2030 nM | GI50 (ACHN renal): 935 nM | TGI (ACHN renal): 3790 nM | GI50 (BT-549 breast): 1630 nM | TGI (BT-549 breast): 3050 nM | GI50 (CAKI-1 renal): 656 nM | TGI (CAKI-1 renal): 2330 nM | GI50 (CCRF-CEM leukemia): 673 nM | TGI (CCRF-CEM leukemia): 6880 nM | GI50 (COLO 205 colon): 528 nM | TGI (COLO 205 colon): 1680 nM | GI50 (DU-145 prostate): 710 nM | TGI (DU-145 prostate): 2210 nM | GI50 (EKVX NSCLC): 407 nM | TGI (EKVX NSCLC): 2080 nM | GI50 (HCC-2998 colon): 549 nM | TGI (HCC-2998 colon): 1770 nM | GI50 (HCT-116 colon): 367 nM | TGI (HCT-116 colon): 1410 nM | GI50 (HCT-15 colon): 679 nM | TGI (HCT-15 colon): 6430 nM | GI50 (HL-60(TB) leukemia): 960 nM | TGI (HL-60(TB) leukemia): 3320 nM | GI50 (HOP-62 NSCLC): 1010 nM | TGI (HOP-62 NSCLC): 2730 nM | GI50 (HOP-92 NSCLC): 1300 nM | TGI (HOP-92 NSCLC): 3840 nM | GI50 (HS 578T breast): 1240 nM | TGI (HS 578T breast): 3470 nM | GI50 (HT29 colon): 356 nM | TGI (HT29 colon): 1480 nM | GI50 (IGROV1 ovarian): 716 nM | TGI (IGROV1 ovarian): 3120 nM | GI50 (K-562 leukemia): 312 nM | TGI (K-562 leukemia): 979 nM | GI50 (KM12 colon): 512 nM | TGI (KM12 colon): 1860 nM | GI50 (LOX IMVI melanoma): 589 nM | TGI (LOX IMVI melanoma): 1790 nM | GI50 (M14 melanoma): 1350 nM | TGI (M14 melanoma): 2660 nM | GI50 (MALME-3M melanoma): 1630 nM | TGI (MALME-3M melanoma): 3350 nM | GI50 (MCF7 breast): 621 nM | TGI (MCF7 breast): 4400 nM | GI50 (MDA-MB-231 breast): 972 nM | TGI (MDA-MB-231 breast): 3060 nM | GI50 (MDA-MB-435): 923 nM | TGI (MDA-MB-435): 2250 nM | GI50 (MOLT-4 leukemia): 369 nM | TGI (MOLT-4 leukemia): 1580 nM | GI50 (NCI-H226 lung): 886 nM | TGI (NCI-H226 lung): 3010 nM | GI50 (NCI-H23 lung): 852 nM | TGI (NCI-H23 lung): 2530 nM | GI50 (NCI-H460 lung): 327 nM | TGI (NCI-H460 lung): 975 nM | GI50 (NCI-H522 lung): 518 nM | TGI (NCI-H522 lung): 1840 nM | GI50 (NCI/ADR-RES ovarian): 933 nM | TGI (NCI/ADR-RES ovarian): 3310 nM | GI50 (OVCAR-3 ovarian): 1710 nM | TGI (OVCAR-3 ovarian): 4260 nM | GI50 (OVCAR-4 ovarian): 704 nM | TGI (OVCAR-4 ovarian): 2250 nM | GI50 (OVCAR-5 ovarian): 1660 nM | TGI (OVCAR-5 ovarian): 5180 nM | GI50 (OVCAR-8 ovarian): 521 nM | TGI (OVCAR-8 ovarian): 2250 nM | GI50 (PC-3 prostate): 355 nM | TGI (PC-3 prostate): 1620 nM | GI50 (RPMI-8226 leukemia): 510 nM | TGI (RPMI-8226 leukemia): 1870 nM | GI50 (RXF 393 renal): 657 nM | TGI (RXF 393 renal): 1840 nM | GI50 (SF-268 CNS): 890 nM | TGI (SF-268 CNS): 2970 nM | GI50 (SF-295 CNS): 649 nM | TGI (SF-295 CNS): 2110 nM | GI50 (SF-539 CNS): 1430 nM | TGI (SF-539 CNS): 3050 nM | GI50 (SK-MEL-2 melanoma): 1270 nM | TGI (SK-MEL-2 melanoma): 2850 nM | GI50 (SK-MEL-28 melanoma): 1720 nM | TGI (SK-MEL-28 melanoma): 3100 nM | GI50 (SK-MEL-5 melanoma): 1580 nM | TGI (SK-MEL-5 melanoma): 2920 nM | GI50 (SK-OV-3 ovarian): 1020 nM | TGI (SK-OV-3 ovarian): 3640 nM | GI50 (SN12C renal): 540 nM | TGI (SN12C renal): 2680 nM | GI50 (SNB-19 CNS): 632 nM | TGI (SNB-19 CNS): 2700 nM | GI50 (SNB-75 CNS): 970 nM | TGI (SNB-75 CNS): 2380 nM | GI50 (SR leukemia): 338 nM | TGI (SR leukemia): 1070 nM | GI50 (SW-620 colon): 393 nM | TGI (SW-620 colon): 1650 nM | GI50 (T-47D breast): 1180 nM | TGI (T-47D breast): 2930 nM | GI50 (TK-10 renal): 837 nM | TGI (TK-10 renal): 3180 nM | GI50 (U251 CNS): 574 nM | TGI (U251 CNS): 2320 nM | GI50 (UACC-257 melanoma): 1750 nM | TGI (UACC-257 melanoma): 3270 nM | GI50 (UACC-62 melanoma): 1780 nM | TGI (UACC-62 melanoma): 3310 nM | GI50 (UO-31 renal): 929 nM | TGI (UO-31 renal): 3410 nM
